According to PubChem BioAssay (NCI):
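Results reflect a 48-hour exposure of cells in 96-well plates to compound at five concentrations. GI50 marks 50% less growth. TGI marks complete inhibition of growth.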

Tests used:
Experiment in all cases: growth of human tumour cells (NCI), 48 h
UO-31 renal = system: UO-31 renal
SK-MEL-5 melanoma = system: SK-MEL-5 melanoma
OVCAR-5 ovarian = system: OVCAR-5 ovarian
SK-OV-3 ovarian = system: SK-OV-3 ovarian
HT29 colon = system: HT29 colon
SF-295 CNS = system: SF-295 CNS
KM12 colon = system: KM12 colon
SF-268 CNS = system: SF-268 CNS
NCI-H226 lung = system: NCI-H226 lung
SNB-19 CNS = system: SNB-19 CNS
OVCAR-4 ovarian = system: OVCAR-4 ovarian
NCI/ADR-RES ovarian = system: NCI/ADR-RES ovarian
PC-3 prostate = system: PC-3 prostate
COLO 205 colon = system: COLO 205 colon
MDA-MB-435 = system: MDA-MB-435
T-47D breast = system: T-47D breast
SK-MEL-2 melanoma = system: SK-MEL-2 melanoma
MOLT-4 leukemia = system: MOLT-4 leukemia
TK-10 renal = system: TK-10 renal
NCI-H460 lung = system: NCI-H460 lung
SN12C renal = system: SN12C renal
HOP-92 NSCLC = system: HOP-92 NSCLC
RXF 393 renal = system: RXF 393 renal
MDA-MB-231 breast = system: MDA-MB-231 breast
UACC-257 melanoma = system: UACC-257 melanoma
SNB-75 CNS = system: SNB-75 CNS
MCF7 breast = system: MCF7 breast
HS 578T breast = system: HS 578T breast
SR leukemia = system: SR leukemia
786-0 renal = system: 786-0 renal
OVCAR-3 ovarian = system: OVCAR-3 ovarian
A549 NSCLC = system: A549 NSCLC
SK-MEL-28 melanoma = system: SK-MEL-28 melanoma
IGROV1 ovarian = system: IGROV1 ovarian
U251 CNS = system: U251 CNS
OVCAR-8 ovarian = system: OVCAR-8 ovarian
NCI-H522 lung = system: NCI-H522 lung
A498 renal = system: A498 renal
SF-539 CNS = system: SF-539 CNS
HCC-2998 colon = system: HCC-2998 colon
HCT-15 colon = system: HCT-15 colon
BT-549 breast = system: BT-549 breast
DU-145 prostate = system: DU-145 prostate
CCRF-CEM leukemia = system: CCRF-CEM leukemia
MALME-3M melanoma = system: MALME-3M melanoma
LOX IMVI melanoma = system: LOX IMVI melanoma
HL-60(TB) leukemia = system: HL-60(TB) leukemia
NCI-H23 lung = system: NCI-H23 lung
ACHN renal = system: ACHN renal
RPMI-8226 leukemia = system: RPMI-8226 leukemia
SW-620 colon = system: SW-620 colon
EKVX NSCLC = system: EKVX NSCLC
CAKI-1 renal = system: CAKI-1 renal
HOP-62 NSCLC = system: HOP-62 NSCLC
UACC-62 melanoma = system: UACC-62 melanoma
HCT-116 colon = system: HCT-116 colon
K-562 leukemia = system: K-562 leukemia
M14 melanoma = system: M14 melanoma

Q: What does the source list for CCN(CC)c1ccc(/C=N/NC(=O)c2ccc(NS(C)(=O)=O)cc2)c(O)c1?
A: GI50 (UO-31 renal): 397 nM; TGI (UO-31 renal): 20500 nM; GI50 (SK-MEL-5 melanoma): 853 nM; TGI (SK-MEL-5 melanoma): 21300 nM; GI50 (OVCAR-5 ovarian): 2470 nM; TGI (OVCAR-5 ovarian): > 100000 nM; GI50 (SK-OV-3 ovarian): 508 nM; TGI (SK-OV-3 ovarian): 20100 nM; GI50 (HT29 colon): 475 nM; TGI (HT29 colon): 16700 nM; GI50 (SF-295 CNS): 551 nM; TGI (SF-295 CNS): 14800 nM; GI50 (KM12 colon): 536 nM; TGI (KM12 colon): 19600 nM; GI50 (SF-268 CNS): 243 nM; TGI (SF-268 CNS): 17300 nM; GI50 (NCI-H226 lung): 1010 nM; TGI (NCI-H226 lung): 31800 nM; GI50 (SNB-19 CNS): 830 nM; TGI (SNB-19 CNS): 30700 nM; GI50 (OVCAR-4 ovarian): 355 nM; TGI (OVCAR-4 ovarian): 42400 nM; GI50 (NCI/ADR-RES ovarian): 3180 nM; TGI (NCI/ADR-RES ovarian): 98300 nM; GI50 (PC-3 prostate): 369 nM; TGI (PC-3 prostate): > 54000 nM; GI50 (COLO 205 colon): 356 nM; TGI (COLO 205 colon): 13500 nM; GI50 (MDA-MB-435): 734 nM; TGI (MDA-MB-435): 97200 nM; GI50 (T-47D breast): 2050 nM; TGI (T-47D breast): > 55300 nM; GI50 (SK-MEL-2 melanoma): 2010 nM; TGI (SK-MEL-2 melanoma): 16900 nM; GI50 (MOLT-4 leukemia): 331 nM; TGI (MOLT-4 leukemia): 25600 nM; GI50 (TK-10 renal): 833 nM; TGI (TK-10 renal): 39900 nM; GI50 (NCI-H460 lung): 455 nM; TGI (NCI-H460 lung): 10200 nM; GI50 (SN12C renal): 768 nM; TGI (SN12C renal): 62600 nM; GI50 (HOP-92 NSCLC): 386 nM; TGI (HOP-92 NSCLC): 20500 nM; GI50 (RXF 393 renal): 788 nM; TGI (RXF 393 renal): 3230 nM; GI50 (MDA-MB-231 breast): 432 nM; TGI (MDA-MB-231 breast): 34900 nM; GI50 (UACC-257 melanoma): 568 nM; TGI (UACC-257 melanoma): 18400 nM; GI50 (SNB-75 CNS): 309 nM; TGI (SNB-75 CNS): 5650 nM; GI50 (MCF7 breast): 409 nM; TGI (MCF7 breast): 24500 nM; GI50 (HS 578T breast): 1950 nM; TGI (HS 578T breast): 18300 nM; GI50 (SR leukemia): 95.4 nM; GI50 (786-0 renal): 425 nM; TGI (786-0 renal): 4200 nM; GI50 (OVCAR-3 ovarian): 185 nM; TGI (OVCAR-3 ovarian): 26300 nM; GI50 (A549 NSCLC): 1980 nM; TGI (A549 NSCLC): > 48500 nM; GI50 (SK-MEL-28 melanoma): 444 nM; TGI (SK-MEL-28 melanoma): > 50900 nM; GI50 (IGROV1 ovarian): 540 nM; TGI (IGROV1 ovarian): > 70300 nM; GI50 (U251 CNS): 239 nM; TGI (U251 CNS): > 37200 nM; GI50 (OVCAR-8 ovarian): 355 nM; TGI (OVCAR-8 ovarian): > 34000 nM; GI50 (NCI-H522 lung): 334 nM; TGI (NCI-H522 lung): 10400 nM; GI50 (A498 renal): 2950 nM; TGI (A498 renal): 25100 nM; GI50 (SF-539 CNS): 426 nM; TGI (SF-539 CNS): 7070 nM; GI50 (HCC-2998 colon): 572 nM; TGI (HCC-2998 colon): 19200 nM; GI50 (HCT-15 colon): 386 nM; TGI (HCT-15 colon): > 68800 nM; GI50 (BT-549 breast): 658 nM; TGI (BT-549 breast): 8610 nM; GI50 (DU-145 prostate): 751 nM; TGI (DU-145 prostate): 23300 nM; GI50 (CCRF-CEM leukemia): 169 nM; TGI (CCRF-CEM leukemia): > 100000 nM; GI50 (MALME-3M melanoma): 788 nM; TGI (MALME-3M melanoma): 11700 nM; GI50 (LOX IMVI melanoma): 219 nM; TGI (LOX IMVI melanoma): 5300 nM; GI50 (HL-60(TB) leukemia): 242 nM; GI50 (NCI-H23 lung): 1160 nM; TGI (NCI-H23 lung): 30600 nM; GI50 (ACHN renal): 497 nM; TGI (ACHN renal): 20600 nM; GI50 (RPMI-8226 leukemia): 2790 nM; TGI (RPMI-8226 leukemia): 16200 nM; GI50 (SW-620 colon): 468 nM; TGI (SW-620 colon): > 100000 nM; GI50 (EKVX NSCLC): 574 nM; TGI (EKVX NSCLC): > 63100 nM; GI50 (CAKI-1 renal): 434 nM; TGI (CAKI-1 renal): 17700 nM; GI50 (HOP-62 NSCLC): 267 nM; TGI (HOP-62 NSCLC): 6940 nM; GI50 (UACC-62 melanoma): 381 nM; TGI (UACC-62 melanoma): 7100 nM; GI50 (HCT-116 colon): 330 nM; TGI (HCT-116 colon): 19500 nM; GI50 (K-562 leukemia): 443 nM; TGI (K-562 leukemia): > 100000 nM; GI50 (M14 melanoma): 351 nM; TGI (M14 melanoma): 3630 nM
